The source of these data is US10138229B2, “Heteroaromatic compounds as BTK inhibitors” (Boehringer Ingelheim International GmbH, priority 2012, dated 2018).

For the assay, the target named is full-length human His-tagged BTK (Homo sapiens (Human), UniProt Q06187). As to the kind of experiment: BTK Assay (HTRF, Cisbio KinEASE-TK). The settings on record: 6 nM BTK, 30 uM ATP, 15 min preincubation. It is filed as biochemical.
full-length human His-tagged BTK, sequence (Q06187 whole entry): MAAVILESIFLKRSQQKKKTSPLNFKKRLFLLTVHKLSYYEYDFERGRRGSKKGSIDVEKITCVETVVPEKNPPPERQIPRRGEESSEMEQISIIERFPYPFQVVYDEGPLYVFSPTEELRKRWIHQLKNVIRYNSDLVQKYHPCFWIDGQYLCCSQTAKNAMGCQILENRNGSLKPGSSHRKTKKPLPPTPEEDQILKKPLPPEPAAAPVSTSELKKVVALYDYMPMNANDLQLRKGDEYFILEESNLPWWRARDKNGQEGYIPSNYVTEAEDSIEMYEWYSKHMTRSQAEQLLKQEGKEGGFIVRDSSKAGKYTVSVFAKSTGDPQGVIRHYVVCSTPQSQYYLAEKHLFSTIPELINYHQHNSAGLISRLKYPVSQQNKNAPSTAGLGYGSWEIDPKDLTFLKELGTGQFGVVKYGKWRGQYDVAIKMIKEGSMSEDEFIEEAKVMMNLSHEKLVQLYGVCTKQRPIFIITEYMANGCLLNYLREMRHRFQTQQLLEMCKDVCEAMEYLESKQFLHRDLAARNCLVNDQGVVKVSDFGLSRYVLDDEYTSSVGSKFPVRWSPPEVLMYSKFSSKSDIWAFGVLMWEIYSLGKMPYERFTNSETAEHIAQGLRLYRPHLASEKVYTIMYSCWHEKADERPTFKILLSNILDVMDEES
Procedure: An HTRF assay (Cisbio KinEASE-TK cat #62TKOPEC) was performed to quantitate the ability of test compounds to inhibit BTK mediated phosphorylation of substrate. Assays were assembled in 384 well plates where 6 nM of full-length human His-tagged BTK (Life Technologies cat # PV3587) and test compound at varying concentrations were preincubated for 15 minutes at 28° C. Then, 1 uM of TK substrate-biotin and 30 uM ATP were added and incubated for an additional 30 minutes at 28° C.
The molecule `CN(C)C/C=C/C(=O)N1CCC[C@H]1Cn1cc(C(N)=O)c(-c2ccc(Oc3ccccc3)cc2)n1` [Example 36] had an IC50 of 0.23 µM.

Turning to `C=CC(=O)N1CCC(Cn2cc(C(N)=O)c(-c3ccc(Oc4ccccc4)cc3)n2)CC1` [Example 47], half-maximal inhibition (IC50) required 0.01 µM.

On to `C=CC(=O)N1CC2(CC(n3nc(-c4ccc(C(F)(F)F)c(F)c4)c(C(N)=O)c3N)C2)C1` [Example 142], for which half-maximal inhibition (IC50) was put at 0.029 µM.

Consider `C=CC(=O)N1CC2(CC(n3nc(-c4ccc(OCC5CC5)cc4)c(C(N)=O)c3N)C2)C1` [Example 104], for which the IC50 was 0.019 µM.

The molecule `C=CC(=O)N1CCC[C@@H](n2cc(C(N)=O)c(-c3ccc(Oc4ccc(Cl)c(Cl)c4)c(OC)c3)n2)C1` [Example 20] gave an IC50 of 0.03 µM.

`CC#CC(=O)N1CC[C@]2(C1)C[C@H](n1nc(-c3ccc(Oc4ccccn4)cc3)c(C(N)=O)c1N)C2` [Example 151] had an IC50 of 0.0007 µM.

Consider `CC#CC(=O)N1CC2(CC(n3nc(-c4ccc(F)c(C(F)(F)F)c4)c(C(N)=O)c3N)C2)C1` [Example 143], for which the IC50 came to 0.037 µM.

Consider `C=CC(=O)N1CC[C@]2(C1)C[C@@H](n1nc(-c3ccc(OCCC)cc3)c(C(N)=O)c1N)C2` [Example 126], for which the IC50 came out at 0.028 µM.

For the molecule `C=CC(=O)N1CC2(CC(n3nc(-c4ccc(OC(F)(F)F)cc4)c(C(N)=O)c3N)C2)C1` [Example 109], half-maximal inhibition (IC50) was put at 0.024 µM.

The molecule `C=CC(=O)N1CC[C@]2(C1)C[C@H](n1nc(-c3ccc(OC4CC4)cc3)c(C(N)=O)c1N)C2` [Example 156] displayed a half-maximal inhibitory concentration (IC50) of 0.016 µM.

As for `C=CC(=O)N1CCC2(CC1)CC(n1cc(C(N)=O)c(-c3ccc(Oc4ccccc4)cc3)n1)C2` [Example 86], it took 0.095 µM to reach half-maximal inhibition (IC50).

`CC#CC(=O)N1CC[C@]2(C1)C[C@H](n1nc(-c3ccc(Oc4ccccc4)cc3)c(C(N)=O)c1N)C2` [Example 91] displayed an IC50 of 0.00079 µM.

Turning to `C=CC(=O)N1CC[C@]2(C1)C[C@@H](n1nc(-c3ccc(C(F)(F)F)cc3)c(C(N)=O)c1N)C2` [Example 131], the IC50 was 0.028 µM.

`CC#CC(=O)N1CCC[C@@H](c2nc(-c3ccc(Oc4ccccc4)cc3)c(C(N)=O)[nH]2)C1` [Example 59]: half-maximal inhibition (IC50) required 0.0089 µM.

Molecule `C=CC(=O)N1CCC[C@@H](n2cc(C(N)=O)c(-c3ccc(Cc4ccccc4)cc3)n2)C1` [Example 9] showed an IC50 of 0.014 µM.

Turning to `CC#CC(=O)N1CCCC(Cn2cc(C(N)=O)c(-c3ccc(Oc4ccccc4)cc3)n2)C1` (stereo not drawn) [Example 48], 0.09 µM corresponded to half-maximal inhibition (IC50).

The molecule `C=CC(=O)N1CCC[C@@H](n2cc(C(N)=O)c(-c3ccc(-c4ccccc4)cc3)n2)C1` [Example 1] came in with an IC50 of 2.6 µM.

For `CC#CC(=O)N1CC2(CC(n3nc(-c4ccc(Oc5ccccc5)cn4)c(C(N)=O)c3N)C2)C1` [Example 110], inhibition was half-maximal at 0.00087 µM (IC50).

Take `CC#CC(=O)N1CC[C@]2(C1)C[C@H](n1nc(-c3ccc(F)c(OCC(F)(F)F)c3)c(C(N)=O)c1N)C2` [Example 137]: the half-maximal inhibitory concentration (IC50) was 0.0016 µM.

The molecule `C=CC(=O)N1CCC[C@@H](n2cc(C(N)=O)c(-c3ccc(OCc4ccccc4)cc3)n2)C1` [Example 2] gave an IC50 of 0.033 µM.

The molecule `C=CC(=O)N1CC2(CC(n3nc(-c4ccc(Oc5ccccc5)cc4)c(C(N)=O)c3N)C2)C1` [Example 35] yielded an IC50 of 0.00077 µM.

For `C=CC(=O)N1CCC[C@@H](n2cc(C(N)=O)c(-c3ccc(Oc4ccccc4)c(OC)c3)n2)C1` [Example 22], the IC50 is 0.0076 µM.

In the case of `NC(=O)c1cn([C@@H]2CCCN(C(=O)C#CCN3CCOCC3)C2)nc1-c1ccc(Oc2ccccc2)cc1` [Example 93], the IC50 stood at 0.033 µM.

With `C=CC(=O)N1CCC2(CC(n3nc(-c4ccc(OCCC)cc4)c(C(N)=O)c3N)C2)C1` (single isomer, unassigned) [Example 125], the IC50 was 0.0075 µM.

The molecule `CN(C)C/C=C/C(=O)N1CCC[C@@H](n2cc(C(N)=O)c(-c3ccc(Oc4ccccc4)cc3)n2)C1` [Example 30] gave an IC50 of 0.057 µM.

Consider `C=CC(=O)N1CCC[C@@H](n2cc(C(N)=O)c(-c3ccc(Oc4ccc(Cl)c(F)c4)cc3)n2)C1` [Example 66], for which the IC50 came to 0.043 µM.

`C=CC(=O)N1CC2(CC(n3nc(-c4ccc(Oc5ccccc5)nc4)c(C(N)=O)c3N)C2)C1` [Example 101] yielded a half-inhibitory concentration (IC50) of 0.0092 µM.

In turn, `NC(=O)c1c(-c2ccc(Oc3ccccc3)cc2)nn([C@H]2C[C@]3(CCN(C(=O)/C=C/CN4CCOCC4)C3)C2)c1N` [Example 99] yielded an IC50 of 0.0032 µM.

As for `C=CC(=O)N1CCC[C@@H](n2cc(C(N)=O)c(-c3ccc4occc4c3)n2)C1` [Example 16], the IC50 was 0.58 µM.

Turning to `C=CC(=O)N1CCC[C@@H](n2cc(C(N)=O)c(-c3ccc(NC(=O)Nc4cccc(C)c4)cc3)n2)C1` [Example 60], the IC50 was 0.041 µM.

Molecule `C=CC(=O)N1CCC[C@H]1Cn1cc(C(N)=O)c(-c2ccc(Oc3ccccc3)cc2)n1` [Example 33] came in with an IC50 of 0.0097 µM.

`CC#CC(=O)N1CC[C@]2(C1)C[C@H](n1nc(-c3ccc(OC(C)C)cc3)c(C(N)=O)c1N)C2` [Example 168] returned an IC50 of 0.0012 µM.

With `CC#CC(=O)N1CCC[C@H]1Cc1nc(-c2ccc(Oc3ccccc3)cc2)c(C(N)=O)s1` [Example 53], the IC50 came out at 0.014 µM.

Consider `C=CC(=O)N1CC2(CC(n3nc(-c4ccc(OCC(F)(F)F)cc4)c(C(N)=O)c3N)C2)C1` [Example 116], for which the 50% inhibitory concentration (IC50) was 0.012 µM.

`C=CC(=O)N1CCC[C@@H](n2cc(C(N)=O)c(-c3ccc(OCc4ccccn4)c(Cl)c3)n2)C1` [Example 21] yielded a 50% inhibitory concentration (IC50) of 0.098 µM.

In turn, `CC#CC(=O)N1CC[C@]2(C1)C[C@H](n1nc(-c3ccc(OCCC)cc3)c(C(N)=O)c1N)C2` [Example 140] yielded a concentration for half-maximal inhibition (IC50) of 0.0009 µM.

As for `C=CC(=O)N1CC2(CC(n3nc(-c4ccc(OC(C)C)c(Cl)c4)c(C(N)=O)c3N)C2)C1` [Example 124], the IC50 was found to be 0.01 µM.

With `CC#CC(=O)N1CC2(CC(n3nc(-c4ccc(C(F)(F)F)cc4)c(C(N)=O)c3N)C2)C1` [Example 147], 0.0092 µM corresponded to half-maximal inhibition (IC50).

Molecule `CN(C)C/C=C/C(=O)N1CC[C@]2(C1)C[C@@H](n1nc(-c3ccc(Oc4ccccc4)cc3)c(C(N)=O)c1N)C2` [Example 98] returned an IC50 of 0.0007 µM.

Regarding `C=CC(=O)N1CCC[C@@H](c2nc(-c3ccc(Oc4ccccc4)cc3)c(C(N)=O)s2)C1` [Example 51], half-maximal inhibition (IC50) required 0.0017 µM.

As to `C=CC(=O)N1CC2(CC(n3nc(-c4ccc(Cl)c(C(F)(F)F)c4)c(C(N)=O)c3N)C2)C1` [Example 135], the IC50 stood at 0.026 µM.

In turn, `CC#CC(=O)N1CCC(n2cc(C(N)=O)c(-c3ccc(Oc4ccccc4)cc3)n2)CC1` [Example 56] registered an IC50 of 0.015 µM.

In turn, `CNC(=O)/C=C/CN1CCC[C@@H](n2cc(C(N)=O)c(-c3ccc(Oc4ccccc4)cc3)n2)C1` [Example 90] came in with an IC50 of 0.09 µM.

In the case of `C=CC(=O)N1CC2(CC(n3nc(-c4ccc(OCCC)cc4)c(C(N)=O)c3N)C2)C1` [Example 111], 0.016 µM corresponded to half-maximal inhibition (IC50).

In turn, `C=CC(=O)NCCc1nc(-c2ccc(Oc3ccccc3)cc2)c(C(N)=O)s1` [Example 34] came in with an IC50 of 0.021 µM.

The molecule `CC#CC(=O)N1CC[C@]2(C1)C[C@@H](n1nc(-c3ccc(Oc4ccccc4)nc3)c(C(N)=O)c1N)C2` [Example 122] had an IC50 of 0.017 µM.

As to `C=CC(=O)N1CCC[C@@H](n2cc(C(N)=O)c(-c3ccc(Oc4cccc(C)c4)cc3)n2)C1` [Example 72], the IC50 was found to be 0.004 µM.

In the case of `C=CC(=O)N1CCC[C@@H](n2cc(C(N)=O)c(-c3ccc(Oc4cccc(F)c4)cc3)n2)C1` [Example 73], the IC50 was 0.0093 µM.

Take `C=CC(=O)N1CC[C@]2(C1)C[C@H](n1nc(-c3ccc(OC)cc3)c(C(N)=O)c1N)C2` [Example 153]: the IC50 stood at 0.0023 µM.

`CC#CC(=O)N1CCC(Cn2cc(C(N)=O)c(-c3ccc(Oc4ccccc4)cc3)n2)C1` (stereo not drawn) [Example 43] displayed a half-maximal inhibitory concentration (IC50) of 0.051 µM.

Consider `C=CC(=O)N1CCC[C@@H](n2cc(C(N)=O)c(-c3ccc(Oc4ccccc4F)cc3)n2)C1` [Example 96], for which the IC50 was found to be 0.0048 µM.

`CN(C)C/C=C/C(=O)N1CC2(CC(n3nc(-c4ccc(Oc5ccccc5)cc4)c(C(N)=O)c3N)C2)C1` [Example 100] gave a half-inhibitory concentration (IC50) of 0.0008 µM.

As for `CC#CC(=O)N1CCC[C@@H](n2cc(C(N)=O)c(-c3ccc(Oc4ccccc4)cc3)n2)C1` [Example 31], the IC50 was determined as 0.08 µM.

For the molecule `C=CC(=O)N1CCC[C@@H](n2cc(C(N)=O)c(-c3ccc(NC(=O)c4cc5ccccc5n4C)c(OC)c3)n2)C1` [Example 25], the IC50 was 0.0051 µM.

`C=CC(=O)N1CC[C@]2(C1)C[C@@H](c1nc(-c3ccc(Oc4ccccc4)cc3)c(C(N)=O)s1)C2` [Example 79] had an IC50 of 0.0064 µM.

On to `C=CC(=O)N1CCC[C@@H](n2cc(C(N)=O)c(-c3ccc(Oc4ccc(C(F)(F)F)cc4)cc3)n2)C1` [Example 63], for which the IC50 was determined as 0.66 µM.

The molecule `CC#CC(=O)N1CC[C@]2(C1)C[C@H](n1nc(-c3ccc(OC4CC4)cc3)c(C(N)=O)c1N)C2` [Example 157] registered an IC50 of 0.002 µM.

In turn, `CC#CC(=O)N1CC[C@]2(C1)C[C@H](n1nc(-c3ccc(C(F)(F)F)cc3)c(C(N)=O)c1N)C2` [Example 128] yielded an IC50 of 0.0009 µM.

`C=CC(=O)NCCn1cc(C(N)=O)c(-c2ccc(Oc3ccccc3)cc2)n1` [Example 39] had an IC50 of 0.29 µM.

In the case of `C=CC(=O)N1CC2(CC(c3nc(-c4ccc(Oc5ccccc5)cc4)c(C(N)=O)s3)C2)C1` [Example 57], the IC50 amounted to 0.0032 µM.

`CC#CC(=O)N1CC2(CC(n3nc(-c4ccc(OC(F)(F)F)cc4)c(C(N)=O)c3N)C2)C1` [Example 108] displayed an IC50 of 0.014 µM.

For `C=CC(=O)N1CCC[C@@H](n2cc(C(N)=O)c(-c3ccc(NC(=O)c4ccc(C(F)(F)F)cc4F)c(OC)c3)n2)C1` [Example 26], the concentration for half-maximal inhibition (IC50) was determined as 0.022 µM.

Consider `C=CC(=O)N1CCC[C@@H](n2cc(C(N)=O)c(-c3ccc(Oc4ccc(Cl)c(Cl)c4)cc3)n2)C1` [Example 69], for which inhibition was half-maximal at 0.043 µM (IC50).

`CC#CC(=O)N1CC[C@]2(C1)C[C@@H](n1nc(-c3ccc(C(F)(F)F)cc3)c(C(N)=O)c1N)C2` [Example 129]: the half-inhibitory concentration (IC50) is 0.029 µM.

Turning to `C=CC(=O)N1CCC2(CC1)CC(n1nc(-c3ccc(Oc4ccccc4)cc3)c(C(N)=O)c1N)C2` [Example 82], the IC50 amounted to 0.002 µM.

`C=CC(=O)N1CCC[C@@H](n2cc(C(N)=O)c(-c3cccc(NS(=O)(=O)c4ccc(C)cc4)c3)n2)C1` [Example 11] had a 50% inhibitory concentration (IC50) of 5.5 µM.
